Measurements as given in patent publication US10350202B2, “Composition and method for treating skin conditions” (442 Ventures, LLC, priority 2010, dated 2019).

Test system: warts
Assay: In vivo treatment of warts
Design: species or system human
Details: topical application to warts
Procedure: A composition including an imidazoquinoline compound; and a retinoid agent was tested in vivo. Imiquimod (5% (wt/wt)) and tazarotene (0.1% (wt/wt) were combined in a 1:1 ratio. The resulting composition was topically applied to individual warts in approximately 30 patients. The patients had various types of warts (thick and thin) in varying locations including palms, soles, hands, legs, feet, trunk, and extremities (including periungual). The composition could be used occluded or non-occluded, at the patient's option.

**Q.** Which “treatment result on warts (in words)” value does the source give for `CCOC(=O)c1ccc(C#Cc2ccc3c(c2)C(C)(C)CCS3)nc1` [tazarotene] here?
**A.** not as efficacious

**Q.** How did the “treatment result on warts (in words)” value turn out when `CC(C)Cn1cnc2c(N)nc3ccccc3c21` [imiquimod, 1-(2-methylpropyl)-1H-imidpzo[4,5-c]quinolin-4-amine] was run?
**A.** not as efficacious
